This assay has as its system Meloidogyne incognita. Nature of the assay: Meloidogyne incognita test: gall rating on cucumber plants in pots after soil application. The format is in vivo. Details: key: 0: no galls; 1: very few small galls; 2: numerous small galls; 3: numerous small galls of which some are grown together; 4: numerous small and some big galls; 25% of roots severely galled; 6: 50% of roots severely galled; 75% of roots severely galled; 8: no healthy roots but plant is still green; 9: roots rotting and plant dying; 10: plant and roots dead. To be noted: 1000 ppm applied to soil inoculated with 5000 eggs & J2s; cucumber seedlings; rated 30 days after application; 0-10 scale (Zeck 1971); untreated check up to 8. The procedure:
Meloidogyne incognita Test:
The trial pots were filled with soil containing a mixture of sand:soil:cocopeat in a ratio of 1:1:1. To the soil of each pot 5 mL of a nematode suspension (Meloidogyne incognita, mix of 5000 eggs & J2s) was added. One hour later the respective test compound at the stated concentration was applied to each pot. 10 days old cucumber seedlings were transplanted into the pots one day after the application. The cucumber plants were allowed to grow at a temperature of 27° C. under greenhouse conditions. The evaluation of the gall rating was recorded 30 days after the application. The plants were carefully uprooted and the roots were thoroughly washed. The gall rating was done on a 0-10 scale as described by Zeck (1971) and shown below: • 0=no galls • 1=very few small galls • 2=numerous small galls • 3=numerous small galls of which some are grown together • 4=numerous small and some big galls • 5=25% of roots severely galled • 6=50% of roots severely galled • 7=75% of roots severely galled • 8=no healthy roots but plant is still green • 9=roots rotting and plant dying • 10=plant and roots dead
Regarding `Cc1c(C(=O)NS(=O)(=O)c2cc(C(F)(F)F)ccc2C(F)(F)F)nnn1-c1c(Cl)cc(Cl)cc1Cl` [Compound 430], the gall rating scale was determined as 4. The figure for `Cc1c(C(=O)NS(=O)(=O)c2cc(C(F)(F)F)ccc2Br)nnn1-c1ccc(Cl)cc1F` [Compound 432] is 4; for `Cc1ccc(C)c(S(=O)(=O)NC(=O)c2nnn(-c3ccc(Cl)cc3F)c2C)c1` [Compound 433] it is 4; for `Cc1c(C(=O)NS(=O)(=O)c2cc(C(F)(F)F)ccc2C(F)(F)F)nnn1-c1ccc(Cl)cc1F` [Compound 441] it is 4. To `Cc1c(C(=O)NS(=O)(=O)c2ccccc2C(F)(F)F)nnn1-c1ccc(Cl)cc1F` [Compound 443] belongs 4. On to `Cc1c(C(=O)NS(=O)(=O)c2ccccc2F)nnn1-c1ccc(Cl)cc1F` [Compound 445], for which the gall rating scale amounted to 4. On to `Cc1c(C(=O)NS(=O)(=O)c2cc(C(F)(F)F)ccc2Cl)nnn1-c1ccc(Cl)cc1F` [Compound 446], for which the gall rating scale was 4. In turn, `Cc1c(C(=O)NS(=O)(=O)c2cc(C(F)(F)F)ccc2Br)nnn1-c1ccc(C#N)cc1Cl` [Compound 458] showed a gall rating scale of 4. For the compound `Cc1ccccc1S(=O)(=O)NC(=O)c1nnn(-c2ccc(C#N)cc2Cl)c1C` [Compound 459], the gall rating scale was 4. The compound `Cc1cc(S(=O)(=O)NC(=O)c2nnn(-c3ccc(C#N)cc3Cl)c2C)c(C)cc1Cl` [Compound 460] yielded a gall rating scale of 4. Take `Cc1c(C(=O)NS(=O)(=O)c2cc(Cl)ccc2F)nnn1-c1ccc(C#N)cc1Cl` [Compound 497]: the gall rating scale came to 4. To `Cc1c(C(=O)NS(=O)(=O)c2ccc(Cl)c(F)c2)nnn1-c1ccc(C#N)cc1Cl` [Compound 499] belongs 4; to `Cc1c(Cl)cccc1S(=O)(=O)NC(=O)c1nnn(-c2ccc(C#N)cc2Cl)c1C` [Compound 513], 4; to `Cc1ccc(F)cc1S(=O)(=O)NC(=O)c1nnn(-c2ccc(C#N)cc2Cl)c1C` [Compound 516, 1-(2-chloro-4-cyanophenyl)-N-((5-fluoro-2-methylphenyl)sulfonyl)-5-methyl-1H-1,2,3-triazole-4-carboxamide], 4. In the case of `Cc1ccc(C)c(S(=O)(=O)NC(=O)c2nnn(-c3ccc(C#N)cc3F)c2C(F)(F)F)c1` [Compound 536, 1-(4-cyano-2-fluorophenyl)-N-((2,5-dimethylphenyl)sulfonyl)-5-(trifluoromethyl)-1H-1,2,3-triazole-4-carboxamide], the gall rating scale was determined as 4. To `COc1ccc(Cl)c(S(=O)(=O)NC(=O)c2nnn(-c3ccc(C#N)cc3F)c2C(F)(F)F)c1` [Compound 538, N-((2-chloro-5-methoxyphenyl)sulfonyl)-1-(4-cyano-2-fluorophenyl)-5-(trifluoromethyl)-1H-1,2,3-triazole-4-carboxamide] belongs 4. Compound `N#Cc1ccc(-n2nnc(C(=O)NS(=O)(=O)c3ccccc3Cl)c2C(F)(F)F)c(F)c1` [Compound 563, N-((2-chlorophenyl)sulfonyl)-1-(4-cyano-2-fluorophenyl)-5-(trifluoromethyl)-1H-1,2,3-triazole-4-carboxamide] gave a gall rating scale of 4. The figure for `COc1ccc(Cl)cc1S(=O)(=O)NC(=O)c1nnn(-c2ccc(OC(F)(F)F)cc2Cl)c1C` [Compound 586] is 4; for `COc1ccc(C)cc1S(=O)(=O)NC(=O)c1nnn(-c2ccc(OC(F)(F)F)cc2Cl)c1C` [Compound 587] it is 4; for `Cc1ccc(F)cc1S(=O)(=O)NC(=O)c1nnn(-c2ccc(OC(F)(F)F)cc2Cl)c1C` [Compound 588] it is 4. The figure for `COc1ccc(C)cc1S(=O)(=O)NC(=O)c1nnn(-c2ccc(OC(F)(F)F)cc2Cl)c1C(F)(F)F` [Compound 590] is 4.

`Cc1c(Cl)cccc1S(=O)(=O)NC(=O)c1nnn(-c2ccc(OC(F)(F)F)cc2Cl)c1C(F)(F)F` [Compound 596, N-((3-chloro-2-methylphenyl)sulfonyl)-1-(2-chloro-4-(trifluoromethoxy)phenyl)-5-(trifluoromethyl)-1H-1,2,3-triazole-4-carboxamide] gave a gall rating scale of 4.

As to `Cc1ccc(F)cc1S(=O)(=O)NC(=O)c1nnn(-c2ccc(OC(F)(F)F)cc2Cl)c1C(F)(F)F` [Compound 597], the gall rating scale turned out to be 4. To `COc1ccc(Cl)cc1S(=O)(=O)NC(=O)c1nnn(-c2ccc(Cl)cc2Cl)c1C(F)(F)F` [Compound 598] belongs 4; to `COc1ccc(C)cc1S(=O)(=O)NC(=O)c1nnn(-c2ccc(Cl)cc2Cl)c1C(F)(F)F` [Compound 599], 4; to `N#Cc1ccc(-n2nnc(C(=O)NS(=O)(=O)c3cc(Cl)c(F)cc3F)c2C(F)(F)F)c(F)c1` [Compound 610, N-((5-chloro-2,4-difluorophenyl)sulfonyl)-1-(4-cyano-2-fluorophenyl)-5-(trifluoromethyl)-1H-1,2,3-triazole-4-carboxamide], 4.

Compound `COc1ccc(Cl)c(S(=O)(=O)NC(=O)c2nnn(-c3ccc(Cl)cc3F)c2C(F)(F)F)c1` [Compound 630] returned a gall rating scale of 4. The figure for `O=C(NS(=O)(=O)c1cc(C(F)(F)F)ccc1Cl)c1nnn(-c2ccc(Cl)cc2F)c1C(F)(F)F` [Compound 631] is 4; for `O=C(NS(=O)(=O)c1ccccc1C(F)(F)F)c1nnn(-c2ccc(Cl)cc2F)c1C(F)(F)F` [Compound 640] it is 4. Compound `Cc1c(C(=O)NS(=O)(=O)c2ccccc2C(F)(F)F)nnn1-c1cc(Cl)c(Cl)cc1Cl` [Compound 657] displayed a gall rating scale of 4. To `COc1ccc(Cl)c(S(=O)(=O)NC(=O)c2nnn(-c3ccc(OC(F)F)cc3Cl)c2C)c1` [Compound 664] belongs 4. To `Cc1c(C(=O)NS(=O)(=O)c2cc(C(F)(F)F)ccc2Cl)nnn1-c1ccc(OC(F)F)cc1Cl` [Compound 665] belongs 4; to `Cc1c(C(=O)NS(=O)(=O)c2cc(Cl)ccc2Cl)nnn1-c1ccc(OC(F)F)cc1Cl` [Compound 666], 4; to `Cc1ccc(C)c(S(=O)(=O)NC(=O)c2nnn(-c3ccc(OC(F)F)cc3Cl)c2C)c1` [Compound 667], 4. Consider `Cc1c(C(=O)NS(=O)(=O)c2ccccc2F)nnn1-c1ccc(OC(F)F)cc1Cl` [Compound 668], for which the gall rating scale is given as 4.

As for `Cc1c(C(=O)NS(=O)(=O)c2ccccc2C(F)(F)F)nnn1-c1ccc(OC(F)F)cc1Cl` [Compound 669], the gall rating scale is recorded as 4. The figure for `Cc1ccc(C)c(S(=O)(=O)NC(=O)c2nnn(-c3ccc(C(F)(F)F)cc3Cl)c2C)c1` [Compound 670] is 4. The figure for `Cc1c(C(=O)NS(=O)(=O)c2ccccc2Cl)nnn1-c1ccc(OC(F)F)cc1Cl` [Compound 671] is 4. For `Cc1c(C(=O)NS(=O)(=O)c2ccc(F)cc2F)nnn1-c1ccc(OC(F)F)cc1Cl` [Compound 672], the gall rating scale is on record as 4. `Cc1c(C(=O)NS(=O)(=O)c2cc(F)cc(F)c2)nnn1-c1ccc(OC(F)F)cc1Cl` [Compound 673] showed a gall rating scale of 4. `Cc1c(C(=O)NS(=O)(=O)c2cc(F)ccc2F)nnn1-c1ccc(OC(F)F)cc1Cl` [Compound 674]: the gall rating scale was 4. To `Cc1c(C(=O)NS(=O)(=O)c2c(F)cc(F)cc2F)nnn1-c1ccc(OC(F)F)cc1Cl` [Compound 675] belongs 4. Turning to `Cc1c(C(=O)NS(=O)(=O)c2cc(Cl)c(Cl)cc2Cl)nnn1-c1ccc(OC(F)F)cc1Cl` [Compound 676], the gall rating scale amounted to 4.

`Cc1c(C(=O)NS(=O)(=O)c2ccc(F)cc2F)nnn1-c1cc(Cl)c(Cl)cc1Cl` [Compound 683] showed a gall rating scale of 4. Compound `Cc1c(C(=O)NS(=O)(=O)c2ccccc2C(F)(F)F)nnn1-c1ccc(F)cc1F` [Compound 687] showed a gall rating scale of 4. The figure for `Cc1c(C(=O)NS(=O)(=O)c2ccccc2Cl)nnn1-c1ccc(F)cc1F` [Compound 689] is 4; for `Cc1c(C(=O)NS(=O)(=O)c2cc(C(F)(F)F)ccc2C(F)(F)F)nnn1-c1ccc(F)cc1F` [Compound 690] it is 4; for `Cc1c(C(=O)NS(=O)(=O)c2cc(Cl)ccc2F)nnn1-c1ccc(F)cc1F` [Compound 691] it is 4. As for `O=C(NS(=O)(=O)c1ccc(Cl)cc1Cl)c1nnn(-c2cc(Cl)c(Cl)cc2Cl)c1C(F)(F)F` [Compound 709], the gall rating scale stood at 4. The figure for `O=C(NS(=O)(=O)c1ccccc1C(F)(F)F)c1nnn(-c2ccc(F)cc2F)c1C(F)(F)F` [Compound 736] is 4; for `O=C(NS(=O)(=O)c1cc(C(F)(F)F)ccc1Cl)c1nnn(-c2ccc(F)cc2F)c1C(F)(F)F` [Compound 774] it is 4; for `Cc1ccccc1S(=O)(=O)NC(=O)c1nnn(-c2ccc(F)cc2F)c1C(F)(F)F` [Compound 776] it is 4.

These data come from US20250129031A1, “1,2,3-TRIAZOLE CARBONYL SULFONYLAMIDE COMPOUNDS AND USE THEREOF” (PI INDUSTRIES LTD., priority 2022, published 2025).
